# Measured values as given in PMC5005338, “Escherichia coli Type III Secretion System 2 ATPase EivC Is Involved in the Motility and Virulence of Avian Pathogenic Escherichia coli” (Frontiers in Microbiology, 2016).
# Molecular target: EivC (His-EivC) (Escherichia coli, UniProt A0A160EFI3)
# Details: 30 min assay; His-tagged protein
# Chain of EivC (His-EivC) (A0A160EFI3 entry or part of it): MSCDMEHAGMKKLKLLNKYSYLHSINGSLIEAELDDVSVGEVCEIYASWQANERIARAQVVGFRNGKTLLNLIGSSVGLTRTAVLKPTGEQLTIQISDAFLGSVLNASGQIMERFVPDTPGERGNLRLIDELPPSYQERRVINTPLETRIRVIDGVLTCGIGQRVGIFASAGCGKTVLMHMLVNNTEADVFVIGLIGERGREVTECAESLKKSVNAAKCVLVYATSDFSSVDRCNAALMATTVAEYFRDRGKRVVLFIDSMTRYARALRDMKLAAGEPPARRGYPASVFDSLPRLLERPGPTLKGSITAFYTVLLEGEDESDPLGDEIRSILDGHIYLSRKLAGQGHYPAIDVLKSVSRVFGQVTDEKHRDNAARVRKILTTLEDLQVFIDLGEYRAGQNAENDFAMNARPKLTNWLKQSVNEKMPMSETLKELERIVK
smiles,measurement,value
Nc1ncnc2c1ncn2[C@@H]1O[C@H](COP(=O)(O)OP(=O)(O)OP(=O)(O)O)[C@@H](O)[C@H]1O [ATP],"phosphate release, malachite green ATPase assay kit",a His-EivC fusion protein was purified and tested for its ability to hydrolyze ATP
